For the first experiment, the target named is T1, ULK1 (Homo sapiens, UniProt O75385).
T1 construct: purchased Promega V3521
T1 sequence (O75385 1-649 limits assumed): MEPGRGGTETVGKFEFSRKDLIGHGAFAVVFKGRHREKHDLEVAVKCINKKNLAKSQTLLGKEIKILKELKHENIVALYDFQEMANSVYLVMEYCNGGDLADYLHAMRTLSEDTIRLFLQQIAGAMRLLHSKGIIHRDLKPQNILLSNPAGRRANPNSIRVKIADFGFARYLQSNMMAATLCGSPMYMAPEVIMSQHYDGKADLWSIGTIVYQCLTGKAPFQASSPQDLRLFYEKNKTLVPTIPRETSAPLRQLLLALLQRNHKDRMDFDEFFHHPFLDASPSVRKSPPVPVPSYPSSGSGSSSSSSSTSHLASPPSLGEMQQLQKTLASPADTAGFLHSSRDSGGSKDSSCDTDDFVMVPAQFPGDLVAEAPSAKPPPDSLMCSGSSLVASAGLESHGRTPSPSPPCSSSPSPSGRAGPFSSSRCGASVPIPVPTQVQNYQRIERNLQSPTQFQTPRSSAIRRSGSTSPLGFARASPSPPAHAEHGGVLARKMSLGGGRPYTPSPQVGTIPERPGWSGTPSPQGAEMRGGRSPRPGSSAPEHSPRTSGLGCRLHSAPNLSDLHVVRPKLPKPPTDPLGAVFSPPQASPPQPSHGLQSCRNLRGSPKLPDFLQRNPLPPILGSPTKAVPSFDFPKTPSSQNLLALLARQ
In words: Inhibition of ULK1 protein activity (ADP-Glo method). Format: biochemical. Particulars: ULK1 enzyme, ATP and MBP substrate, 60 min room temperature. The method, then:
In this experiment, the inhibitory effect of a compound on the phosphorylation function of ULK1 was detected by ADP-Glo method. The inhibitory effect of the compound of the present disclosure on the ULK1 target was evaluated based on IC50.
Compound formulation: Using an ECHO (Beckman, ECHO650), the compound was serially diluted 3-fold in DMSO in a 384-well plate (PE, 6007290). A total of 10 concentration points were set, with the maximum concentration of the compound being 10 μM, and 50 nL per well. Positive control wells and negative control wells were added with 50 nL DMSO, respectively.
Reaction process: A 32 nM of ULK1 (Promega, V3521) solution was formulated, and 2.5 μL/well was transferred to the compound test wells and the negative control wells (NC). 2.5 μL/well of 1× Assay buffer was added to the positive control wells (PC). A mixed solution of 100 μM of ATP and 1.86 μM of MBP was formulated, and 2.5 μL/well was transferred to the reaction plate. After centrifugation, the reaction was initiated and incubated at room temperature for 60 min. After the reaction was completed, 5 μL/well of ADP-Glo Reagent (Promega, V9102) was added to the reaction plate. After centrifugation, the reaction was incubated at room temperature for 40 minutes. Finally, 10 μL/well of Kinase Detection Buffer was added, followed by centrifugation and incubation at room temperature for 30 min. The chemiluminescence value was read using Envision (PE, Envision2105).
Assay buffer: a reaction buffer; and Kinase Detection buffer: a detection buffer, both were taken from the ADP-Glodetection kit, purchased from Promega, model V9102. 3. Data analysis
The inhibition ratio of a compound on ULK1 activity was calculated using the following formula:
Inhibition ratio=(sample signal value−negative control signal value)/(positive control signal value−negative control signal value)×100%. The dose-effect curve was fitted using the log(inhibitor) vs. response -Variable slope of the analysis software GraphPad Prism 8, thereby affording the IC50 value of each compound for enzyme activity.
Turning to `Cc1ccn(C2CN(c3nc(Nc4ccc(N5CCN(C)CC5)cc4C4CC4)ncc3C(F)(F)F)C2)n1` [Example 2], the IC50 is 100 to 1000 nM. For the molecule `Cc1ccn(C2CCN(c3nc(Nc4ccc(N5CCN(C)CC5)cc4C4CC4)ncc3C(F)(F)F)C2)n1` (stereo not shown) [Example 41], the IC50 was less than 100 nM. As to `CN1CCN(c2ccc(Nc3ncc(C(F)(F)F)c(N4C5CCC4C(=O)N(C)C5)n3)c(C3CC3)c2)CC1` (stereo not shown) [Example 39], the IC50 is less than 100 nM. Still for that read-out and setting: to `CN1CCN(c2ccc(Nc3ncc(C(F)(F)F)c(NC4CCC(N5CCCC5=O)CC4)n3)c(C3CC3)c2)CC1` (stereo not shown) [Example 52] belongs less than 100 nM; to `CN1CCN(c2ccc(Nc3ncc(C(F)(F)F)c(N[C@H]4CCN(C)C4=O)n3)c(C3CC3)c2)CC1` [Example 11], 100 to 1000 nM. `CN1CCN(c2ccc(Nc3ncc(C(F)(F)F)c(N4CC5(CCN(C)CC5)C4)n3)c(C3CC3)c2)CC1` [Example 48]: the IC50 was less than 100 nM. As to `CN1CCN(c2ccc(Nc3ncc(C(F)(F)F)c(NC4CCN(C)C(=O)C4)n3)c(C3CC3)c2)CC1` (stereo not shown) [Example 10], the IC50 lay within 100 to 1000 nM. `CN1CCN(c2ccc(Nc3ncc(C(F)(F)F)c(N4CCC5(CCNC5=O)CC4)n3)c(C3CC3)c2)CC1` [Example 35] returned an IC50 of less than 100 nM. `CN1CCN(c2ccc(Nc3ncc(C(F)(F)F)c(N4CCC5(CN(C)C5)C4)n3)c(C3CC3)c2)CC1` [Example 38] displayed an IC50 of less than 100 nM. Same read-out and setting: to `CN1CCN(c2ccc(Nc3ncc(C(F)(F)F)c(OCCCC(=O)N4CCOCC4)n3)c(C3CC3)c2)CC1` [Example 47] belongs less than 100 nM; to `CN1CCC(n2cc(-c3nc(Nc4ccc(N5CCN(C)CC5)cc4C4CC4)ncc3C(F)(F)F)cn2)CC1` [Example 33], less than 100 nM; to `CN1CCN(c2ccc(Nc3ncc(C(F)(F)F)c(N4CCN(C5CCCNC5)C(=O)C4)n3)c(C3CC3)c2)CC1` (stereo not shown) [Example 45], 100 to 1000 nM. On the same count and under the same terms, to `CN1CCN(c2ccc(Nc3ncc(C(F)(F)F)c(N4CCC(CN5CCCCC5=O)C4)n3)c(C3CC3)c2)CC1` (stereo not shown) [Example 12] belongs 100 to 1000 nM; to `CN1CCN(c2ccc(Nc3ncc(C(F)(F)F)c(N4CCC(N5CCCCC5=O)CC4)n3)c(C3CC3)c2)CC1` [Example 8], greater than 1000 nM. `CN1CCN(c2ccc(Nc3ncc(C(F)(F)F)c(NC(=O)C4CCC4)n3)c(C3CC3)c2)CC1` [Example 7] had an IC50 of 100 to 1000 nM. Molecule `CN1CCN(c2ccc(Nc3ncc(C(F)(F)F)c(CCN4CCCCC4=O)n3)c(C3CC3)c2)CC1` [Example 28] registered an IC50 of 100 to 1000 nM. With `CN1CCN(c2ccc(Nc3ncc(C(F)(F)F)c(OC4CCN(C)C(=O)C4)n3)c(C3CC3)c2)CC1` (stereo not shown) [Example 17], the IC50 is less than 100 nM. Molecule `CN1CCN(c2ccc(Nc3ncc(C(F)(F)F)c(N4CCN(C(=O)C5CCC5)CC4)n3)c(C3CC3)c2)CC1` [Example 3] gave an IC50 of 100 to 1000 nM.

For the molecule `CN1CCN(c2nc(Nc3cccc(Nc4ccc(N)cc4)c3)ncc2C(F)(F)F)CC1=O` [Example 21], the IC50 was in the range of 100 to 1000 nM. In turn, `CN1CCN(c2ccc(Nc3ncc(C(F)(F)F)c(COCCN4CCCCC4=O)n3)c(C3CC3)c2)CC1` [Example 42] had an IC50 greater than 1000 nM. On the same count and under the same terms, to `CN1CCN(c2ccc(Nc3ncc(C(F)(F)F)c(N4CC5(CCN(C)C5)C4)n3)c(C3CC3)c2)CC1` [Example 25] belongs less than 100 nM. Turning to `CN1CCN(c2ccc(Nc3ncc(C(F)(F)F)c(N4CCCN(C(=O)C5CCC5)CC4)n3)c(C3CC3)c2)CC1` [Example 9], the IC50 fell in the range of 100 to 1000 nM. `CN1CCN(c2ccc(Nc3ncc(C(F)(F)F)c(N4CCC(N5CCCC5=O)CC4)n3)c(C3CC3)c2)CC1` [Example 6] returned a 50% inhibitory concentration (IC50) greater than 1000 nM. Same read-out and setting: to `CN1CCN(c2ccc(Nc3ncc(C(F)(F)F)c(N4CC5(CCCN(C)C5)C4)n3)c(C3CC3)c2)CC1` [Example 50] belongs 100 to 1000 nM.

Molecule `CN1CCN(c2nc(Nc3cccc(NC(=O)N4CCCC4)c3)ncc2C(F)(F)F)CC1=O` [Example 22] came in with an IC50 greater than 1000 nM.

`CN1CCN(c2ccc(Nc3ncc(C(F)(F)F)c(N4CCC5(CC4)CN(C)C5)n3)c(C3CC3)c2)CC1` [Example 36] returned an IC50 greater than 1000 nM. In the case of `CN1CCN(c2ccc(Nc3ncc(C(F)(F)F)c(CCNC(=O)C4CCC4)n3)c(C3CC3)c2)CC1` [Example 27], the IC50 is 100 to 1000 nM.

Molecule `Cc1ccnn1C1CCN(c2nc(Nc3ccc(N4CCN(C)CC4)cc3C3CC3)ncc2C(F)(F)F)CC1` [Example 13] gave an IC50 of 100 to 1000 nM. In the case of `CN1CC[C@@H](Oc2ccc(Nc3ncc(C(F)(F)F)c(OCCCN4CCCCC4=O)n3)c(C3CC3)c2)C1` [Example 46], the IC50 was less than 100 nM. Turning to `CN1CCC2(CCN(c3nc(Nc4ccc(N5CCOCC5)cc4)ncc3C(F)(F)F)CC2)C1` [Example 23], the IC50 is less than 100 nM.

`CN1CCC(COc2ccc(Nc3ncc(C(F)(F)F)c(OCCCN4CCCCC4=O)n3)c(C3CC3)c2)CC1` [Example 34] gave an IC50 of 100 to 1000 nM. The molecule `CC(=O)Nc1ccc(Nc2cccc(Nc3ncc(C(F)(F)F)c(N4CCN(C)C(=O)C4)n3)c2)cc1` [Example 43] gave an IC50 greater than 1000 nM. `CN1CCN(c2nc(Nc3cccc(CN4CCOCC4)c3)ncc2C(F)(F)F)CC1=O` [Example 16] gave an IC50 greater than 1000 nM. As to `CN1CCN(c2ccc(Nc3ncc(C(F)(F)F)c(NCCCc4ccccc4C#N)n3)c(C3CC3)c2)CC1` [Example 44], the IC50 is less than 100 nM. Take `CN1CCN(c2ccc(Nc3ncc(C(F)(F)F)c(N4CCC(NC(=O)C5CCC5)CC4)n3)c(C3CC3)c2)CC1` [Example 4]: the IC50 lay within 100 to 1000 nM.

`CN1CCN(c2ccc(Nc3ncc(C(F)(F)F)c(OC4CCN(C(=O)C5CCC5)CC4)n3)c(C3CC3)c2)CC1` [Example 18] returned an IC50 of 100 to 1000 nM.

Another experiment has as its system ATG13 phosphorylation level in MIA PaCa-2 cells. Put plainly: Inhibition of ATG13 phosphorylation level in MIA PaCa-2 cells (pATG13 ELISA). It counts as cell-based. The settings on record: Homo sapiens, Torin1 100 nM, 24 h incubation, Phospho-Atg13 (ser355). The method, then:
The inhibitory effect of the compound of the present disclosure on ULK1 was evaluated by testing the inhibitory effect of the compound of the present disclosure on ATG13 phosphorylation level in MIA PaCa-2 cells.
MIA PaCa-2 cells (ATCC, CRM-CRL-1420) were cultured in a complete medium, namely, a DMEM medium (Gibco, 11965-092) containing 10% fetal bovine serum (Corning, 35-081-CV), 2.5% horse serum (Gibco, 16050-122) and 1% double antibody (Gibco, 15140-122). The experiments were performed according to the requirements of the kit (Cell Signaling Technology, 17208C).
Cell plating: MIA PaCa-2 at 80% growth confluence were digested, diluted with the complete medium, and added to a 96-well cell culture plate (Costar, 3596) at 20,000 cells per well, with a volume of 90 μL.
Compound incubation: 5 μL of Torin1 and 5 μL of a serially diluted compound were added to each well so that the highest concentration of the compound in the reaction system was 10 μM. 5-fold serial dilution with 8 concentrations was performed, and the final concentration of Torin1 was 100 nM. The DMSO content in the system was 0.1%. The reaction plate was placed in an incubator at 37° C. in 5% CO2, and was incubated for 24 h. 10 μL of Torin1 was added to the negative control wells (NC) to a final concentration of 100 nM, with a DMSO content of 0.1%.
Reaction detection: After the incubation was completed, the cell plate was washed with a pre-cooled DPBS (Corning, 21-031-CVC) to wash away the compound and medium. 50 μL of pre-cooled cell lysis solution was added to each well, incubated on ice for 10 min. The cell plate was centrifuged, and the supernatant was transferred to an ELISA reaction plate. Simultaneously, 50 μL of Phospho-Atg13 (ser355) rabbit detection antibody was added, followed by incubation at room temperature under shaking for 60 min. After the incubation was completed, the reaction plate was washed with a washing solution for 4 times. 100 μL of TMB substrate was added for color development reaction, followed by incubation under shaded conditions with shaking for 15 min. Finally, 100 μL of stop solution was added to each well. The reaction was terminated by shaking for 10 s, and the absorbance value at 450 nm and 560 nm were collected within 10 min using Envision (Perkin Elmer, EnVision 2105).
The inhibition ratio was calculated by subtracting the absorbance value at […] from the absorbance value at 450 nm for each well. The inhibition ratio formula is as follows: inhibition ratio=(sample signal value−negative control signal value)/(positive control signal value -negative control signal value)×100%.
The dose-effect curve was fitted using the log (inhibitor) vs. response -Variable slope of Graphpad Prism8, thereby affording the IC50 value of each compound for inhibiting ATG13 phosphorylation level.
Regarding `CN1CCN(c2ccc(Nc3ncc(C(F)(F)F)c(N4CC5(CCN(C)C5)C4)n3)c(C3CC3)c2)CC1` [Example 25], the half-maximal inhibitory concentration (IC50) fell in the range of 100 to 1000 nM.

For the origin of these results see patent US20260274819A1, “ULK1 INHIBITOR, PREPARATION METHOD THEREFOR AND USE THEREOF” (DOVETREE MEDICINES UNUS, INC., priority 2023, published 2026).
